Data: US8623859B2, “Bradykinin B1 antagonists” (Evotec AG, priority 2008, dated 2014)
pIC50: −log10 of the molar value. Structures can show the parent of a compound that is named as a salt.

These molecules were tested against T1, human B1 (Homo sapiens, UniProt P46663) (assay: Calcium flux assay for Bradykinin B1 antagonist, CHO-K1 cell line expressing human B1). Conditions: CHO-K1 cells expressing human B1, agonist Lys-(Des-Arg)-Bradykinin, read-out: Potency (IC50 value against human B1).
T1 construct: host or cells: CHO-K1
T1 sequence (P46663 1-353): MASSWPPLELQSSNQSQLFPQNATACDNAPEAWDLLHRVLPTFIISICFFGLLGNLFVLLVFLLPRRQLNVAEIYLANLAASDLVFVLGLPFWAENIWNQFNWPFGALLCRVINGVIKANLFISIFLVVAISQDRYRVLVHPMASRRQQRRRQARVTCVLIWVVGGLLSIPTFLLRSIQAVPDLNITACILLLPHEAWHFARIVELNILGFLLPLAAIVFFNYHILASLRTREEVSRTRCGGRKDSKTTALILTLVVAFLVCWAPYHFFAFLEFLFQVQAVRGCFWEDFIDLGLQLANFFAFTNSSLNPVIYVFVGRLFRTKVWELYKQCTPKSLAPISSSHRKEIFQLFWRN
Type: cell-based
Method in brief: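 CHO-K1 cells expressing human B1, loaded with 5 μM Fluo-4AM (2 h, 37° C) in HEPES buffer pH 7.4 with probenecid and 0.1% BSA, were preincubated 30 min at 25° C with compound (8 concentrations, triplicate, 1% DMSO) before B1 agonist addition. Ca2+ fluorescence monitored at 538 nm; background-normalized integrated values plotted against log antagonist concentration.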

| pIC50 | Structure (SMILES) |
| --- | --- |
| > 8.00 | COc1cc(C)c(S(=O)(=O)N(Cc2nc(C(=O)N3CCN(CCCN(C)C)CC3)co2)C2CC2)c(C)c1 [Ex 196, N-Cyclopropyl-N-{[4-({4-[3-(dimethylamino)propyl]piperazin-1-yl}carbonyl)-1,3-oxazol-2-yl]methyl}-4-methoxy-2,6-dimethylbenzenesulfonamide trifluoroacetate] |
| > 8.00 | COc1cc(C)c(S(=O)(=O)N(Cc2nc(C(=O)N3CCN(CCCN4CCCC4)CC3)co2)C2CC2)c(C)c1 [Ex 197, N-Cyclopropyl-4-methoxy-2,6-dimethyl-N-[(4-{[4-(3-pyrrolidin-1-ylpropyl)piperazin-1-yl]carbonyl}-1,3-oxazol-2-yl)methyl]benzenesulfonamide trifluoroacetate] |
| > 8.00 | COc1cc(C)c(S(=O)(=O)N(Cc2nc(C(=O)N(C)Cc3ccc(CN4CCC(C)(O)C4)cc3)co2)C2CC2)c(C)c1 (centres unmarked) [Ex 198, 2-({Cyclopropyl[(4-methoxy-2,6-dimethylphenyl)sulfonyl]amino}methyl)-N-{4-[(3-hydroxy-3-methylpyrrolidin-1-yl)methyl]benzyl}-N-methyl-1,3-oxazole-4-carboxamide] |
| > 8.00 | COc1cc(C)c(S(=O)(=O)N(Cc2nc(C(=O)N(C)Cc3nnc(CN4CCCC4)s3)co2)C2CC2)c(C)c1 [Ex 199, 2-({Cyclopropyl[(4-methoxy-2,6-dimethylphenyl)sulfonyl]amino}methyl)-N-methyl-N-{[5-(pyrrolidin-1-ylmethyl)-1,3,4-thiadiazol-2-yl]methyl}-1,3-oxazole-4-carboxamide trifluoroacetate] |
| > 8.00 | COc1cc(C)c(S(=O)(=O)N(Cc2nc(C(=O)N(C)Cc3nc(CN4CCCC4)cs3)co2)C2CC2)c(C)c1 [Ex 200, 2-({Cyclopropyl[(4-methoxy-2,6-dimethylphenyl)sulfonyl]amino}methyl)-N-methyl-N-{[4-(pyrrolidin-1-ylmethyl)-1,3-thiazol-2-yl]methyl}-1,3-oxazole-4-carboxamide trifluoroacetate] |
| 6.00 to 7.00 | COc1cc(C)c(S(=O)(=O)N(C)Cc2nc(C(=O)N(C)Cc3nnc(CN4CCCC4)s3)co2)c(C)c1 [Ex 201, 2-({[(4-Methoxy-2,6-dimethylphenyl)sulfonyl](methyl)amino}methyl)-N-methyl-N-{[5-(pyrrolidin-1-ylmethyl)-1,3,4-thiadiazol-2-yl]methyl}-1,3-oxazole-4-carboxamide trifluoroacetate] |
| 7.00 to 8.00 | COc1cc(C)c(S(=O)(=O)N(C)Cc2nc(C(=O)N(C)Cc3nc(CN4CCCC4)cs3)co2)c(C)c1 [Ex 202, 2-({[(4-Methoxy-2,6-dimethylphenyl)sulfonyl](methyl)amino}methyl)-N-methyl-N-{[4-(pyrrolidin-1-ylmethyl)-1,3-thiazol-2-yl]methyl}-1,3-oxazole-4-carboxamide trifluoroacetate] |
| > 8.00 | COc1cc(C)c(S(=O)(=O)N(Cc2nc(C(=O)N(C)Cc3ccc(CN4CCCC4)nc3)co2)C2CC2)c(C)c1 [Ex 203, 2-({Cyclopropyl[(4-methoxy-2,6-dimethylphenyl)sulfonyl]amino}methyl)-N-methyl-N-{[6-(pyrrolidin-1-ylmethyl)pyridin-3-yl]methyl}-1,3-oxazole-4-carboxamide] |
| > 8.00 | COc1cc(C)c(S(=O)(=O)N(Cc2nc(C(=O)N3CCN(CCCCN(C)C)CC3)co2)C2CC2)c(C)c1 [Ex 204, N-Cyclopropyl-N-{[4-({4-[4-(dimethylamino)butyl]piperazin-1-yl}carbonyl)-1,3-oxazol-2-yl]methyl}-4-methoxy-2,6-dimethylbenzenesulfonamide trifluoroacetate] |
| 6.00 to 7.00 | COc1cc(C)c(S(=O)(=O)N(Cc2nc(C(=O)N3CC4CCNCC4C3)co2)C2CC2)c(C)c1 (centres unmarked) [Ex 205, N-Cyclopropyl-4-methoxy-2,6-dimethyl-N-{[4-(octahydro-2H-pyrrolo[3,4-c]pyridin-2-ylcarbonyl)-1,3-oxazol-2-yl]methyl}benzenesulfonamide] |
| 6.00 to 7.00 | COc1cc(C)c(S(=O)(=O)N(Cc2nc(C(=O)N3CC4CCN(C5CCN(C)CC5)CC4C3)co2)C2CC2)c(C)c1 (centres unmarked) [Ex 206, N-Cyclopropyl-4-methoxy-2,6-dimethyl-N-[(4-{[5-(1-methylpiperidin-4-yl)octahydro-2H-pyrrolo[3,4-c]pyridin-2-yl]carbonyl}-1,3-oxazol-2-yl)methyl]benzenesulfonamide trifluoroacetate] |
| 6.00 to 7.00 | COc1cc(C)c(S(=O)(=O)N(Cc2nc(C(=O)N3CCC(N(C)C4CCN(C)CC4)C3)co2)C2CC2)c(C)c1 (centres unmarked) [Ex 208, N-Cyclopropyl-4-methoxy-2,6-dimethyl-N-{[4-({3-[methyl(1-methylpiperidin-4-yl)amino]pyrrolidin-1-yl}carbonyl)-1,3-oxazol-2-yl]methyl}benzenesulfonamide trifluoroacetate] |
| 6.00 to 7.00 | COc1cc(C)c(S(=O)(=O)N(Cc2nc(C(=O)N3CC4CN(Cc5ccc(OC)nc5)CC4C3)co2)C2CC2)c(C)c1 (centres unmarked) [Ex 209, N-Cyclopropyl-4-methoxy-N-{[4-({5-[(6-methoxypyridin-3-yl)methyl]hexahydropyrrolo[3,4-c]pyrrol-2(1H)-yl}carbonyl)-1,3-oxazol-2-yl]methyl}-2,6-dimethylbenzenesulfonamide trifluoroacetate] |
| 7.00 to 8.00 | COc1cc(C)c(S(=O)(=O)N(Cc2nc(C(=O)N3CC4CCN(Cc5ccc(OC)nc5)CC4C3)co2)C2CC2)c(C)c1 (centres unmarked) [Ex 210, N-Cyclopropyl-4-methoxy-N-{[4-({5-[(6-methoxypyridin-3-yl)methyl]octahydro-2H-pyrrolo[3,4-c]pyridin-2-yl}carbonyl)-1,3-oxazol-2-yl]methyl}-2,6-dimethylbenzenesulfonamide trifluoroacetate] |
| > 8.00 | COc1cc(C)c(S(=O)(=O)N(Cc2nc(C(=O)N3CC4CCN(Cc5ccc(N6CCCC6)nc5)CC4C3)co2)C2CC2)c(C)c1 (centres unmarked) [Ex 211, N-Cyclopropyl-4-methoxy-2,6-dimethyl-N-{[4-({5-[(6-pyrrolidin-1-ylpyridin-3-yl)methyl]octahydro-2H-pyrrolo[3,4-c]pyridin-2-yl}carbonyl)-1,3-oxazol-2-yl]methyl}benzenesulfonamide trifluoroacetate] |
| 6.00 to 7.00 | COc1cc(C)c(S(=O)(=O)N(Cc2nc(C(=O)N3CCC(N(C)Cc4ccc(OC)nc4)C3)co2)C2CC2)c(C)c1 (centres unmarked) [Ex 212, N-Cyclopropyl-4-methoxy-N-({4-[(3-{[(6-methoxypyridin-3-yl)methyl](methyl)amino}pyrrolidin-1-yl)carbonyl]-1,3-oxazol-2-yl}methyl)-2,6-dimethylbenzenesulfonamide trifluoroacetate] |
| 6.00 to 7.00 | CN(CCc1ccc(C2=NCCN2)cc1)C(=O)c1coc(CN(C2CC2)S(=O)(=O)c2c(Cl)cccc2Cl)n1 [Ex 213, 2-({Cyclopropyl[(2,6-dichlorophenyl)sulfonyl]amino}methyl)-N-{2-[4-(4,5-dihydro-1H-imidazol-2-yl)phenyl]ethyl}-N-methyl-1,3-oxazole-4-carboxamide trifluoroacetate] |
| 6.00 to 7.00 | CN(CCc1ccc(C2=NCCN2)cc1)C(=O)c1coc(CN(C2CC2)S(=O)(=O)c2ccc(Cl)cc2Cl)n1 [Ex 214, 2-({Cyclopropyl[(2,4-dichlorophenyl)sulfonyl]amino}methyl)-N-{2-[4-(4,5-dihydro-1H-imidazol-2-yl)phenyl]ethyl}-N-methyl-1,3-oxazole-4-carboxamide trifluoroacetate] |
| 7.00 to 8.00 | CN(CCc1ccc(C2=NCCN2)cc1)C(=O)c1coc(CN(C2CC2)S(=O)(=O)c2c(Cl)cc(Cl)cc2Cl)n1 [Ex 215, 2-({Cyclopropyl[(2,4,6-trichlorophenyl)sulfonyl]amino}methyl)-N-{2-[4-(4,5-dihydro-1H-imidazol-2-yl)phenyl]ethyl}-N-methyl-1,3-oxazole-4-carboxamide trifluoroacetate] |
| 6.00 to 7.00 | CN(Cc1ccc(CN2CCCC2)cc1)C(=O)c1coc(CN(C2CC2)S(=O)(=O)c2c(Cl)cc(Cl)cc2Cl)n1 [Ex 216, 2-({Cyclopropyl[(2,4,6-trichlorophenyl)sulfonyl]amino}methyl)-N-methyl-N-[4-(pyrrolidin-1-ylmethyl)benzyl]-1,3-oxazole-4-carboxamide trifluoroacetate] |
| 6.00 to 7.00 | Cc1cc(S(=O)(=O)N(Cc2nc(C(=O)N(C)CCc3ccc(C4=NCCN4)cc3)co2)C2CC2)c(C)cc1Cl [Ex 217, 2-({[(4-Chloro-2,5-dimethylphenyl)sulfonyl](cyclopropyl)amino}methyl)-N-{2-[4-(4,5-dihydro-1H-imidazol-2-yl)phenyl]ethyl}-N-methyl-1,3-oxazole-4-carboxamide trifluoroacetate] |
| 6.00 to 7.00 | Cc1cc(S(=O)(=O)N(Cc2nc(C(=O)N(C)Cc3ccc(CN4CCCC4)cc3)co2)C2CC2)c(C)cc1Cl [Ex 218, 2-({[(4-Chloro-2,5-dimethylphenyl)sulfonyl](cyclopropyl)amino}methyl)-N-methyl-N-[4-(pyrrolidin-1-ylmethyl)benzyl]-1,3-oxazole-4-carboxamide trifluoroacetate] |

| Structure (SMILES) | pIC50 |
| --- | --- |
| COc1cc(C)c(S(=O)(=O)N(Cc2nc(C(=O)N3CC4CCN(C5CN6CCC5CC6)CC4C3)co2)C2CC2)c(C)c1 (centres unmarked) [Ex 207, N-[(4-{[5-(1-Azabicyclo[2.2.2]oct-3-yl)octahydro-2H-pyrrolo[3,4-c]pyridin-2-yl]carbonyl}-1,3-oxazol-2-yl)methyl]-N-cyclopropyl-4-methoxy-2,6-dimethylbenzenesulfonamide trifluoroacetate] | > 8.00 |
